Values joined by “and” are separate entries in the source; they are usually repeats but may differ in a detail not shown here. Equal entries are not always repeated. Toxic doses and inconclusive results are not listed.
System: BDF1 mice, B16 melanoma ip, median survival T/C
Assay: NCI In Vivo Anticancer Drug Screen. Data for tumor model B16 Melanoma (intraperitoneal) in B6D2F1 (BDF1) mice
Details: endpoint: median survival time, higher = longer survival
Outline: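 Read-out: survival or tumor size, given as treated/control ratio. Controls received vehicle only; animals bore transplantable tumors.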

[1] = dose: 100.0 mg/kg/injection, schedule: Q01DX009 (ip), vehicle: saline with Tween-80
[2] = dose: 200.0 mg/kg/injection, schedule: Q01DX009 (ip), vehicle: saline with Tween-80
[3] = dose: 400.0 mg/kg/injection, schedule: Q01DX009 (ip), vehicle: saline with Tween-80
[4] = dose: 50.0 mg/kg/injection, schedule: Q01DX009 (ip), vehicle: saline with Tween-80
[5] = dose: 25.0 mg/kg/injection, schedule: Q01DX009 (ip), vehicle: Klucel (hydroxypropylcellulose) (HPC)
[6] = dose: 100.0 mg/kg/injection, schedule: Q01DX009 (ip), vehicle: Klucel (hydroxypropylcellulose) (HPC)
[7] = dose: 100.0 mg/kg/injection, schedule: Q04DX003 (ip), vehicle: Klucel (hydroxypropylcellulose) (HPC)
[8] = dose: 200.0 mg/kg/injection, schedule: Q01DX009 (ip), vehicle: Klucel (hydroxypropylcellulose) (HPC)
[9] = dose: 200.0 mg/kg/injection, schedule: Q04DX003 (ip), vehicle: Klucel (hydroxypropylcellulose) (HPC)
[10] = dose: 400.0 mg/kg/injection, schedule: Q01DX009 (ip), vehicle: Klucel (hydroxypropylcellulose) (HPC)
[11] = dose: 50.0 mg/kg/injection, schedule: Q01DX009 (ip), vehicle: Klucel (hydroxypropylcellulose) (HPC)

With `CCCCOC(=O)C(C)OC(=O)Nc1cccc(Cl)c1` (configuration not stated) the T/C [1] was 88 % of control, the T/C [2] was 100 % of control and the T/C [3] was 92 % of control.
With `COc1cccc2c1C(=O)c1c(O)c3c(c(O)c1C2=O)C[C@@](O)(C(=O)CO)C[C@@H]3OC1CC(NCc2ccccc2)C(O)C(C)O1` (some centres not stated) the T/C (dose: 15.0 mg/kg/injection, schedule: Q01DX001 (ip), vehicle: water) was 156 % of control and 171 % of control and the T/C (dose: 30.0 mg/kg/injection, schedule: Q01DX001 (ip), vehicle: water) was 171 % of control and 175 % of control.
In the case of `CC1(C)c2ccccc2C(C)(C(Cl)(Cl)Cl)c2ccc(Cl)cc21` (configuration not stated), the T/C [4] is reported as 97 % of control, the T/C [1] is reported as 103 % of control and the T/C [2] is reported as 91 % of control. The T/C [3] was 93 % of control.
`CC(O)CNCCNc1ccc(NCCNCC(C)O)c2c1C(=O)c1c(O)ccc(O)c1C2=O` (configuration not stated) was tested, and the T/C (dose: 0.5 mg/kg/injection, schedule: Q01DX009 (ip), vehicle: distilled water + Tween-80) was 150 % of control, the T/C (dose: 1.0 mg/kg/injection, schedule: Q01DX009 (ip), vehicle: distilled water + Tween-80) was 163 % of control and the T/C (dose: 2.0 mg/kg/injection, schedule: Q01DX009 (ip), vehicle: distilled water + Tween-80) was 178 % of control. The T/C (dose: 4.0 mg/kg/injection, schedule: Q01DX009 (ip), vehicle: distilled water + Tween-80) was 222 % of control, the T/C (dose: 8.0 mg/kg/injection, schedule: Q01DX009 (ip), vehicle: distilled water + Tween-80) was 222 % of control and the T/C (dose: 16.0 mg/kg/injection, schedule: Q01DX009 (ip), vehicle: distilled water + Tween-80) was 222 % of control.
`CCNCc1cc(Nc2cc(C)nc(/N=C(\N)Nc3ccc(Cl)c(Cl)c3)n2)ccc1OC` was tested, and the T/C (dose: 6.25 mg/kg/injection, schedule: Q01DX009 (ip), vehicle: Klucel (hydroxypropylcellulose) (HPC)) was 100 % of control, the T/C (dose: 12.5 mg/kg/injection, schedule: Q01DX009 (ip), vehicle: Klucel (hydroxypropylcellulose) (HPC)) was 102 % of control and the T/C [5] was 91 % of control.
For `CC(C)C(NC=O)C(=O)O` (configuration not stated), the T/C [4] was 101 % of control, the T/C [1] was 97 % of control and the T/C [2] was 92 % of control.
In the case of `CCC/C(=C\C(=O)O)CC`, the T/C [6] is reported as 108 % of control, the T/C [7] is reported as 95 % of control and the T/C [8] is reported as 100 % of control. The T/C [9] was 95 % of control and the T/C [10] was 97 % of control.
`Cc1ccc(N(CCCl)CCCl)cc1NC(=O)c1ccccc1` was tested, and the T/C (dose: 400.0 mg/kg/injection, schedule: Q01DX009 (ip), vehicle: saline) was 161 % of control and the T/C (dose: 800.0 mg/kg/injection, schedule: Q01DX009 (ip), vehicle: saline) was 188 % of control.
With `CN(C)CCCN1c2ccccc2Sc2cnccc21` the T/C (dose: 25.0 mg/kg/injection, schedule: Q01DX009 (ip), vehicle: saline) was 115 % of control, the T/C (dose: 50.0 mg/kg/injection, schedule: Q01DX009 (ip), vehicle: saline) was 93 % of control and the T/C (dose: 100.0 mg/kg/injection, schedule: Q01DX009 (ip), vehicle: saline) was 115 % of control.
`CCc1ccccc1NC(=O)c1cccc(C(=O)Nc2ccccc2CC)c1` was tested, and the T/C [11] was 102 % of control, the T/C [6] was 105 % of control and the T/C [8] was 102 % of control.
With `CS(=O)(=O)c1cnc2ccccc2n1` the T/C (dose: 25.0 mg/kg/injection, schedule: Q01DX009 (ip), vehicle: saline with Tween-80) was 94 % of control and the T/C [4] was 86 % of control.
In the case of `CN(C)C(=S)S`, the T/C [5] is reported as 118 % of control, the T/C (dose: 25.0 mg/kg/injection, schedule: Q04DX003 (ip), vehicle: Klucel (hydroxypropylcellulose) (HPC)) is reported as 100 % of control and the T/C [11] is reported as 103 % of control. For the same compound, the T/C [4] was 89 % of control, the T/C (dose: 50.0 mg/kg/injection, schedule: Q04DX003 (ip), vehicle: Klucel (hydroxypropylcellulose) (HPC)) was 105 % of control and the T/C [6] was 91 % of control. For the same compound, the T/C [1] was 105 % of control, the T/C [7] was 94 % of control and the T/C [8] was 116 % of control. For the same compound, the T/C [2] was 98 % of control, the T/C [9] was 94 % of control and the T/C [10] was 98 % of control. The T/C [3] was 89 % of control and the T/C (dose: 400.0 mg/kg/injection, schedule: Q04DX003 (ip), vehicle: Klucel (hydroxypropylcellulose) (HPC)) was 97 % of control.
In the case of `C=C(C)C12OC3(/C=C/C=C/CCCCC)OC1C1C4OC4(CO)C(O)C4(O)C(=O)C(C)=CC4C1(O3)C(C)C2OC(=O)c1ccccc1` (configuration not stated), the T/C (dose: 0.5 micrograms/kg/injection, schedule: Q01DX009 (ip), vehicle: saline) is reported as 104 % of control, the T/C (dose: 1.0 micrograms/kg/injection, schedule: Q01DX009 (ip), vehicle: saline) is reported as 104 % of control and the T/C (dose: 1.9 micrograms/kg/injection, schedule: Q01DX009 (ip), vehicle: saline) is reported as 105 % of control. The T/C (dose: 3.8 micrograms/kg/injection, schedule: Q01DX009 (ip), vehicle: saline) was 104 % of control, the T/C (dose: 7.5 micrograms/kg/injection, schedule: Q01DX009 (ip), vehicle: saline) was 97 % of control and the T/C (dose: 15.0 micrograms/kg/injection, schedule: Q01DX009 (ip), vehicle: saline) was 104 % of control. For the same compound, the T/C (dose: 30.0 micrograms/kg/injection, schedule: Q01DX009 (ip), vehicle: saline) was 98 % of control.
